Experimental findings from paper PMC4500165 (Pure and applied chemistry. Chimie pure et appliquee, 2013) are described below.

The assay addresses T1, peanut agglutinin (PNA) (Arachis hypogaea, UniProt P02872).
T1 sequence (P02872 24-273): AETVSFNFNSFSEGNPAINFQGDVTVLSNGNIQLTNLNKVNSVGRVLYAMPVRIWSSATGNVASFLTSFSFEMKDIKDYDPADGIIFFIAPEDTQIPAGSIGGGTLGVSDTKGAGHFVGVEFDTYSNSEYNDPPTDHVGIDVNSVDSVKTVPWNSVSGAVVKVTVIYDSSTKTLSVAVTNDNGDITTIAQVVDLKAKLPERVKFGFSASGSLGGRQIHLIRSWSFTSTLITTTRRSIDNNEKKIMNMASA
As to the kind of experiment: isothermal titration calorimetry, one-site model. It is filed as binding.

SMILES strings stand for the structures.

By Kd is commonly meant the free concentration of one partner at which half of the binding sites on the other are occupied at equilibrium, for simple one-to-one binding. Lower therefore signals tighter binding. With `[N-]=[N+]=Nc1c(F)c(F)c(C(=O)NCCOCCOCCS[C@@H]2O[C@H](CO)[C@@H](O[C@@H]3O[C@H](CO)[C@H](O)[C@H](O)[C@H]3O)[C@H](O)[C@H]2O)c(F)c1F` [compound 5, 2-(2-(2-(4-Azido-2,3,5,6-tetrafluorobenzamido)ethoxy)ethoxy)ethyl 4-O-β-D-galactopyranosyl-1-thio-β-D-glucopyranoside], binding was characterised by a dissociation constant (Kd) of 549 µM.
